Our source for the IC50 and inhibition values is ChEMBL document CHEMBL4622852, “Design and synthesis of novel proline based factor XIa selective inhibitors as leads for potential new anticoagulants” (Bioorg Med Chem Lett, 2020).

Broadly, the IC50 is the concentration needed to halve the response being measured. Lower therefore signals greater potency. What is called inhibition is the drop in the measured response relative to a control, in per cent. Lower therefore signals a weak effect.

For one test, the target named is Prothrombin (Homo sapiens, UniProt P00734). Put plainly: Inhibition of thrombin (unknown origin).
The target of test [1] is T1, Coagulation factor XI (Homo sapiens, UniProt P03951). Put plainly: Inhibition of factor 11a (unknown origin).
T1 sequence (P03951 19-387 limits assumed): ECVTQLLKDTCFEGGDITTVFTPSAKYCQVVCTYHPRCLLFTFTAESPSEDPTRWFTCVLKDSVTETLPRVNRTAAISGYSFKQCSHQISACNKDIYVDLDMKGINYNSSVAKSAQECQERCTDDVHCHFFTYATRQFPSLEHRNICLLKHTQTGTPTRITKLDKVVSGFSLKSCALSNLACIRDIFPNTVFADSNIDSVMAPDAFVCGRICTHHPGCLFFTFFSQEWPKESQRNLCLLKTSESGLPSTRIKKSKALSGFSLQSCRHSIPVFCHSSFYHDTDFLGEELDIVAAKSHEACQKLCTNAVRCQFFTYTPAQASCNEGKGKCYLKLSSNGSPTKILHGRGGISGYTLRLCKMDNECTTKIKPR
T1 sequence (P03951 388-625 limits assumed): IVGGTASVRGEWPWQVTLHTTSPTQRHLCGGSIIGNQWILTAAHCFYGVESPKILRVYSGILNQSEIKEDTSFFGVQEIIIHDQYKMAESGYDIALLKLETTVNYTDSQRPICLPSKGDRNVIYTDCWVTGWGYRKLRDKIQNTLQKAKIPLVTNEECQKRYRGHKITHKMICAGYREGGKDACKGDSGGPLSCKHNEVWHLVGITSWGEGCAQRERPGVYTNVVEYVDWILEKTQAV
Another test deals with Coagulation factor IX (Homo sapiens, UniProt P00740). The test can be described thus: Inhibition of factor 9a (unknown origin).
Coagulation factor IX, sequence (P00740 47-191 limits assumed): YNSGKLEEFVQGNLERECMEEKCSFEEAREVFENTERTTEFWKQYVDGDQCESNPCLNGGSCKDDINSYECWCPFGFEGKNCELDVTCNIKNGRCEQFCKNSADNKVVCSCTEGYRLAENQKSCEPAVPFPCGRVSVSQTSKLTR
Coagulation factor IX, sequence (P00740 227-461 limits assumed): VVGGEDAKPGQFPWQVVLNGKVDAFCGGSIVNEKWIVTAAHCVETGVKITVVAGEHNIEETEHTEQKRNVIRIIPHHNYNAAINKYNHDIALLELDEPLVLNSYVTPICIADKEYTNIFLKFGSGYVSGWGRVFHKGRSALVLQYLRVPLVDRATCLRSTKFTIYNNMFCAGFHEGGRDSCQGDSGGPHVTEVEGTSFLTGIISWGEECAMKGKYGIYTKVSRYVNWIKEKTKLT
Another test deals with Coagulation factor X (Homo sapiens, UniProt P00742). Put plainly: Inhibition of factor 10a (unknown origin).
Coagulation factor X, sequence (P00742 41-179 limits assumed): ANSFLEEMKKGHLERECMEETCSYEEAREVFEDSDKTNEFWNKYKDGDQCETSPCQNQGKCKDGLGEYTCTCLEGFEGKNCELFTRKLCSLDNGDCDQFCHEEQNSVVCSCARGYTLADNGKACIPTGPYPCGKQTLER
Coagulation factor X, sequence (P00742 235-488 limits assumed): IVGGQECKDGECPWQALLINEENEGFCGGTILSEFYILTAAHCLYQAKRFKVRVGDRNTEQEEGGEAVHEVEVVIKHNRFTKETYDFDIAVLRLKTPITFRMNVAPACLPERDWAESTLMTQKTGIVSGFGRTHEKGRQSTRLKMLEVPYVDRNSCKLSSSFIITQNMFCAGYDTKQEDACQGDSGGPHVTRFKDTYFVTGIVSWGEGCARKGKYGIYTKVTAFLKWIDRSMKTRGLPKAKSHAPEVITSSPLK
In a further test the target is T2, Coagulation factor VII (Homo sapiens, UniProt P08709).
T2 sequence (P08709 whole entry): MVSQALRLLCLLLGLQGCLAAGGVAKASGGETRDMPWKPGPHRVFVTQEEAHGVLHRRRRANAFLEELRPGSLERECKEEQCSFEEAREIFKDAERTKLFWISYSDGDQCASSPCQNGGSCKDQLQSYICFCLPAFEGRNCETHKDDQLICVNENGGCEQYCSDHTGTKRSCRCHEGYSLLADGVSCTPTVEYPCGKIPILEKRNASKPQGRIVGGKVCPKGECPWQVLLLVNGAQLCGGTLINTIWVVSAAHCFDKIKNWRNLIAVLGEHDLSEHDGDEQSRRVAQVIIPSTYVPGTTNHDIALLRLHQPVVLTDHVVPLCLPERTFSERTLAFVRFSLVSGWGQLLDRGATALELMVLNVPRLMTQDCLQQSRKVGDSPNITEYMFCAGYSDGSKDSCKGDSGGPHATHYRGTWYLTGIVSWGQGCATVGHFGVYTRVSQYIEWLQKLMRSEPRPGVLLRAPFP
Put plainly: Inhibition of factor 7a (unknown origin).

Another test deals with Trypsin (Homo sapiens, UniProt P07477+P07478+P35030). Put plainly: Inhibition of trypsin (unknown origin). Format: protein assay.
The next test addresses T3, Coagulation factor XII (Homo sapiens, UniProt P00748).
T3 sequence (P00748 whole entry): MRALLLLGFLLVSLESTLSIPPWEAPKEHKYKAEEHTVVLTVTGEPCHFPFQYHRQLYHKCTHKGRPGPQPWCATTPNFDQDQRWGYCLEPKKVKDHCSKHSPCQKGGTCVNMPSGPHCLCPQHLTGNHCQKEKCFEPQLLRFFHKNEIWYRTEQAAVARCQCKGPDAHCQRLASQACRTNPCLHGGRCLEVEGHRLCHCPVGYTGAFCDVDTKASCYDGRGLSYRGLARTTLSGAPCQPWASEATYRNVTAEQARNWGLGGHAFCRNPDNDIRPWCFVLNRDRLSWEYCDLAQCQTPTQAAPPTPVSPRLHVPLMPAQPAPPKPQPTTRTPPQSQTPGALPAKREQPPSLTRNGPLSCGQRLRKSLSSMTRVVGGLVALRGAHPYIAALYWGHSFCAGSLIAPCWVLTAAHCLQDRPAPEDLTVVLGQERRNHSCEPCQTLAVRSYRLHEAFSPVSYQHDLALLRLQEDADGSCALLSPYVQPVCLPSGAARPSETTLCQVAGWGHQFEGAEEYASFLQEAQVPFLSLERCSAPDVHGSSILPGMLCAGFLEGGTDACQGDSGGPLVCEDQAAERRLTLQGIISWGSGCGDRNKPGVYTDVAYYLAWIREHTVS
The test can be described thus: Inhibition of factor 12a (unknown origin).

The target of test [2] is T1, Coagulation factor XI. Put plainly: Inhibition of factor 11a (unknown origin) at 10 uM relative to control.

SMILES strings stand for the structures.

With `CO[C@H]1C[C@@H](C(=O)NCc2ccc3c(N)nccc3c2)N(C(=O)[C@@H](CC(C)C)NC2CCCCC2)C1`, the IC50 at Prothrombin is > 5000 nM; against Coagulation factor XI [1], 263 nM.
As to `CC(C)C[C@@H](NC1CCCC1)C(=O)N1CCC[C@H]1C(=O)NCc1ccc2c(N)nccc2c1`, the IC50 against Prothrombin is 38 nM; against Coagulation factor XI [1], 1380 nM.
`CC[C@@H](C)[C@@H](NC1CCCCC1)C(=O)N1C[C@@](C)(O)C[C@H]1C(=O)NCc1ccc2c(N)nccc2c1`: the IC50 came to 7830 nM at Coagulation factor IX; 49 nM on Coagulation factor X; 218 nM on Prothrombin; 12 nM at Coagulation factor XI [1]; 461 nM on Coagulation factor VII; 547 nM on Trypsin. This compound also came in with an IC50 against Coagulation factor XII of 241 nM.
In the case of `CC[C@H](C)[C@@H](NC1CCCCC1)C(=O)N1CCC[C@H]1C(=O)NCc1ccc2c(N)nccc2c1`, on Coagulation factor XI [1], it took 347 nM to reach half-maximal inhibition (IC50).
Regarding `Nc1ncnc2cc(CNC(=O)[C@@H]3CCCN3C(=O)[C@@H](CC3CCCCC3)NC3CCCCC3)ccc12`, on Coagulation factor XI [2], the inhibition is 10%.
As for `Nc1nccc2cc(CNC(=O)[C@@H]3CCCN3C(=O)[C@H](NC3CCCCC3)C3CCCCC3)ccc12`, the figures for the IC50 at Prothrombin and against Coagulation factor XI [1] were 6 nM and 91 nM, respectively.
On to `CC(C)C[C@@H](NC1CCCCC1)C(=O)N1CC[C@H]1C(=O)NCc1ccc2c(N)nccc2c1`, for which the IC50 worked out at 3 nM against Prothrombin and 1100 nM on Coagulation factor XI [1].
With `CC[C@@H](C)[C@@H](NC1CCCCC1)C(=O)N1C[C@@H](O)C[C@H]1C(=O)NCc1ccc2c(N)nccc2c1`, the IC50 amounted to 8330 nM against Coagulation factor IX; 136 nM against Coagulation factor X; 309 nM against Prothrombin; 21 nM against Coagulation factor XI [1]; 993 nM against Coagulation factor VII; 824 nM against Trypsin. Inhibition at Coagulation factor XII was half-maximal at 341 nM (IC50).
On Coagulation factor XI [1], `CC[C@@H](C)[C@@H](NC1CCCCC1)C(=O)N1CCC[C@H]1C(=O)NCc1ccc2c(N)nccc2c1` gave an IC50 of 16 nM.
The same measure, in the same setting: in the case of `O=C(NCc1cc(Cl)ccc1-n1cnnn1)[C@@H]1CCCN1C(=O)[C@@H](CC1CCCCC1)NC1CCCCC1` it was > 30000 nM.
Same read-out and setting: in the case of `CC(C)C[C@@H](NC1CCCCC1)C(=O)N1C[C@@](C)(O)C[C@H]1C(=O)NCc1ccc2c(N)nccc2c1` it was 49 nM.
Regarding `CCS(=O)(=O)N[C@H](CC(C)C)C(=O)N1CCC[C@H]1C(=O)NCc1ccc2c(N)nccc2c1`, the 50% inhibitory concentration (IC50) at Prothrombin is 24 nM; on Coagulation factor XI [1], 794 nM.
With `Nc1ncnc2oc(CNC(=O)[C@@H]3CCCN3C(=O)[C@@H](CC3CCCCC3)NC3CCCCC3)cc12`, the inhibition at Coagulation factor XI [2] came to 8%.
On to `CC(C)C[C@@H](NC(C)C(F)F)C(=O)N1CCC[C@H]1C(=O)NCc1ccc2c(N)nccc2c1` (stereo partly specified), for which the figures for the IC50 on Prothrombin and against Coagulation factor XI [1] were 95 nM and 339 nM, respectively.
For `CC(C)[C@@H](NC1CCCCC1)C(=O)N1CCC[C@H]1C(=O)NCc1ccc2c(N)nccc2c1` the same measures were 7 nM and 234 nM.
On to `CCC[C@@H](NC1CCCCC1)C(=O)N1CCC[C@H]1C(=O)NCc1ccc2c(N)nccc2c1`, for which the results for the IC50 against Prothrombin and on Coagulation factor XI [1] were 9 nM and 171 nM, respectively.
Consider `CC[C@@H](C)[C@@H](NC1CCCCC1)C(=O)N1C[C@@](C)(C#N)C[C@H]1C(=O)NCc1ccc2c(N)nccc2c1`, for which the IC50 is > 10000 nM on Coagulation factor IX; 2740 nM on Coagulation factor X; 289 nM on Prothrombin; 28 nM on Coagulation factor XI [1]; 1130 nM on Coagulation factor VII; 3371 nM at Trypsin. Moreover, at Coagulation factor XII, the IC50 worked out at 7290 nM.
As to `CC(C)C[C@@H](NC1CCCCC1)C(=O)N1C[C@@H](F)C[C@H]1C(=O)NCc1ccc2c(N)nccc2c1`, the IC50 at Prothrombin was > 5000 nM; against Coagulation factor XI [1] it was 437 nM.
With `CC[C@@H](C)[C@@H](NC(C)C(F)F)C(=O)N1C[C@@](C)(O)C[C@H]1C(=O)NCc1ccc2c(N)nccc2c1` (stereo partly specified), the IC50 was > 10000 nM against Coagulation factor IX; 798 nM against Coagulation factor X; 3630 nM against Prothrombin; 77 nM at Coagulation factor XI [1]; 2760 nM on Coagulation factor VII; 4034 nM against Trypsin. In addition, on Coagulation factor XII, the IC50 is > 10000 nM.
With `CC[C@@H](C)[C@@H](NS(=O)(=O)Cc1ccc(Cl)cc1)C(=O)N1C[C@@](C)(O)C[C@H]1C(=O)NCc1ccc2c(N)nccc2c1`, the IC50 was > 20000 nM against Coagulation factor IX; 78 nM on Coagulation factor X; 370 nM against Prothrombin; 15 nM against Coagulation factor XI [1]; 2020 nM against Coagulation factor VII; 2020 nM at Trypsin. On Coagulation factor XII, the IC50 was > 30000 nM.
For the compound `CC(C)C[C@@H](NC1CCCCC1)C(=O)N1CCCC[C@H]1C(=O)NCc1ccc2c(N)nccc2c1`, the concentration for half-maximal inhibition (IC50) at Prothrombin amounted to 4 nM; on Coagulation factor XI [1], 138 nM.
`Cc1cc2cc(CNC(=O)[C@@H]3CCCN3C(=O)[C@@H](CC3CCCCC3)NC3CCCCC3)ccc2c(N)n1` showed an inhibition against Coagulation factor XI [2] of 61%.
On to `CC(C)C[C@@H](NC1CCOCC1)C(=O)N1CCC[C@H]1C(=O)NCc1ccc2c(N)nccc2c1`, for which the IC50 on Prothrombin turned out to be 281 nM; against Coagulation factor XI [1], 1350 nM.
Consider `CC(C)C[C@@H](NC1CCCCC1)C(=O)N1C[C@@H](C(F)(F)F)C[C@H]1C(=O)NCc1ccc2c(N)nccc2c1`, for which the values for the IC50 against Prothrombin and at Coagulation factor XI [1] were > 5000 nM and 76 nM, respectively.
Turning to `CC[C@@H](C)[C@@H](NC1CCC(F)(F)CC1)C(=O)N1C[C@](O)(CC)C[C@H]1C(=O)NCc1ccc2c(N)nccc2c1`, the IC50 at Coagulation factor IX is > 30000 nM; on Coagulation factor X, 652 nM; against Prothrombin it was 1190 nM; on Coagulation factor XI [1], 88 nM; against Coagulation factor VII it was 3800 nM; at Trypsin, 2701 nM. The IC50 against Coagulation factor XII was > 10000 nM.
On to `CC(C)C[C@@H](NC1CCC(F)(F)CC1)C(=O)N1CCC[C@H]1C(=O)NCc1ccc2c(N)nccc2c1`, for which the results for the IC50 against Prothrombin and against Coagulation factor XI [1] were 120 nM and 417 nM, respectively.
For `CC(C)C[C@@H](NC1CCCCC1)C(=O)N1C[C@@H](O)C[C@H]1C(=O)NCc1ccc2c(N)nccc2c1` the same measures were 1000 nM and 100 nM.
As for `Nc1nccc2cc(CNC(=O)[C@@H]3CCCN3C(=O)[C@H](NC3CCCCC3)C3CCOCC3)ccc12`, the IC50 on Prothrombin amounted to 2 nM; at Coagulation factor XI [1], 224 nM.
With `CC[C@@H](C)[C@@H](NS(=O)(=O)Cc1ccc(C(F)(F)F)cc1)C(=O)N1C[C@@](C)(O)C[C@H]1C(=O)NCc1ccc2c(N)nccc2c1`, the IC50 on Coagulation factor IX is > 30000 nM; against Coagulation factor X, 328 nM; against Prothrombin it was 521 nM; against Coagulation factor XI [1] it was 46 nM; on Coagulation factor VII it was 2780 nM; against Trypsin, 2912 nM. The IC50 on Coagulation factor XII was > 30000 nM.
With `Nc1nccc2cc(CNC(=O)[C@@H]3CCCN3C(=O)[C@@H](CC3CC3)NC3CCCCC3)ccc12`, the IC50 at Prothrombin came out at 6 nM; at Coagulation factor XI [1], 98 nM.
`CC[C@@H](C)[C@@H](NS(=O)(=O)Cc1ccc(Cl)cc1)C(=O)N1C[C@@](C)(C#N)C[C@H]1C(=O)NCc1ccc2c(N)nccc2c1`: the IC50 was > 30000 nM against Coagulation factor IX; 829 nM against Coagulation factor X; 43 nM on Prothrombin; 10 nM at Coagulation factor XI [1]; 285 nM against Coagulation factor VII; 2526 nM at Trypsin. The IC50 on Coagulation factor XII was > 20000 nM.
Turning to `CC(C)C[C@@H](NC1CCCCC1)C(=O)N1CCC[C@H]1C(=O)NCc1ccc2c(N)nccc2c1`, the values for the IC50 on Prothrombin and against Coagulation factor XI [1] were 5 nM and 60 nM, respectively.
On to `CC(C)C[C@@H](NC1CCCCC1)C(=O)N1C[C@@H](C)C[C@H]1C(=O)NCc1ccc2c(N)nccc2c1`, for which half-maximal inhibition at Coagulation factor XI [1] (IC50) required 2340 nM. That is a single-digit micromolar value.
Regarding `CC[C@@H](C)[C@@H](NC1CCCCC1)C(=O)N1C[C@](O)(CC)C[C@H]1C(=O)NCc1ccc2c(N)nccc2c1`, the IC50 against Coagulation factor IX was > 10000 nM; against Coagulation factor X it was 93 nM; against Prothrombin, 92 nM; against Coagulation factor XI [1] it was 22 nM; on Coagulation factor VII, 646 nM; at Trypsin, 410 nM. Besides, half-maximal inhibition against Coagulation factor XII (IC50) was put at 426 nM.
`CC(C)C[C@@H](NC1CCC1)C(=O)N1CCC[C@H]1C(=O)NCc1ccc2c(N)nccc2c1`: the figures for the IC50 on Prothrombin and against Coagulation factor XI [1] were 44 nM and 3310 nM, respectively.
For `CC(C)C[C@@H](NC1CCC(C(F)(F)F)CC1)C(=O)N1CCC[C@H]1C(=O)NCc1ccc2c(N)nccc2c1` (stereo partly specified) the same measures were 174 nM and 490 nM.
For `CC(C)CN[C@H](CC(C)C)C(=O)N1CCC[C@H]1C(=O)NCc1ccc2c(N)nccc2c1` the same measures were 37 nM and 2690 nM.
